Assay results as given in paper PMC6452685, “Lysyl-tRNA synthetase as a drug target in malaria and cryptosporidiosis” (Proceedings of the National Academy of Sciences of the …, 2019).
Like-named read-outs stand apart in the source and are kept apart here.

What was measured:
HsKRS = target: T1, HsKRS (Homo sapiens, UniProt Q15046); assay: HsKRS SAR assay, luciferase ATP consumption (Kinase-Glo); type: biochemical
T1 construct: HsKRS (full-length) proteins; 6xHis (N); made in house; host or cells: E. coli Rosetta BL21(DE3), vector pAVA0421 (UW); template pET28a-KRS
Protocol: We produced recombinant PfKRS1 (77–583 and 80–583), CpKRS (46-end), and HsKRS (full-length) proteins and developed biochemical assays based on the luciferase ATP consumption assay (Kinase-Glo; Promega) ([16]), which was suitable for the high-throughput screening, and the pyrophosphate generation assay (EnzChek) ([17]) format for kinetic characterization of the enzymes. The activities of recombinant enzymes were analyzed by monitoring only the first stage of the aminoacylation reaction. This reaction is suitable for high-throughput screening campaigns and makes the reaction more amenable for steady-state kinetic studies. By using the EnzChek assay, which monitors the production of pyrophosphate (when coupled with pyrophosphatase), Km values were obtained for PfKRS1, CpKRS, and HsKRS for ATP and L-lysine (Table 1 and SI Appendix, Fig. S1 and Table S1). […] This may be due to structural differences (see below) between the active sites of the parasite and human enzymes. […]
2.7 PfKR S1, CpKRS and HsKR S S AR Ass ay Usin g L ucife r ase ATP C onsumption ( Kinase Glo ®) Inhi bi ti on of KRS acti vity by cl adospori n and other compou nds was assayed i n t he buffered me di um.
Each as s ay w el l was compos ed of b uffer (as des cri bed i n Ta bl e S3), 10 µM l ysi ne and ei ther 8.1 nM PfKRS1, 8.1 nM CpKRS or 6.6 nM HsKRS. […] The react i on w a s initiated by the addition of 2 µM ATP. The plate was incubated with shaking at 90 rpm and 30°C for 120 mi n. […] Maximum and minimum signal controls were included in each reaction plate. […] Analysis and calculation of inhibitors IC50 values were performed using Graphpad® Prism software (GraphPad S oftware, San Diego, CA). […]

[1] = tested on: Plasmodium falciparum 3D7; assay: P. falciparum 3D7 growth inhibition (SYBR green I); type: cell-based; details: for EC50: Plasmodium falciparum, P. falciparum 3D7 bloodstream, read-out: Pf(3D7) EC50
Excerpt: (§1) 3.2 Cytotoxicity Studies (Dundee)
(§2) In vi t ro cy totox i ci ty s tudies can be ca rri ed out us i ng Hep G 2 (Human C aucas i an hepatocy te ca rci noma, ECACC cat. no. 850 114 30) us ed as i ndi cators f or g eneral mammal i an cel l tox i ci ty . […]
(§3) 3.3 In vitro Cell Assay D ata Analysis (Du ndee) […]
(§4) as 0%. Qual i ty control c ri teri a for passi ng pl ates were as fol l ow s : Z’ > 0.
(§5) < 15 . T he f ormula used to calculate Z’ is 1- 3´ (St D e v _ hi gh + St D e v_ low) . […]
(§6) Al l EC50 Curve fitti ng was undertaken usi ng XLFi t versi on 4.2 usi ng Model 205 wi th the foll owi ng 4 paramet ri c equat i on: A + (?-A) ,where A=% i nhi bi ti on at bo ttom, B=% i nhi bi ti on at top, C= EC , […]
(§7) D= slope, x= inhibitor concentration a nd y= % inhibition. […]
was fixed to 100 only when at least 50% of inhibition was reached.

[2] = tested on: Nanoluciferase-expressing C. parvum; assay: Inhibition of Nanoluciferase expressing C. parvum growth in HCT-8 cells; type: cell-based, Cryptosporidium parvum; details: read-out: Nluc Cp EC50
Protocol: […] ( UW ) Inhibition of C. parvum growth and EC50 det erm i nat i ons w ere perf ormed w i t h a Na nol uci feras e-expressing C. parvum parasi t e i n HC T-8 cel l s. Oocys ts were propag ated i n cal v es (Cryptosporidium Producti on La borato ry, School o f Ani mal and Comparati ve Bi omedi cal Sci ences, Universi ty of Ari zona) and i sol ated from stool s by sucrose suspensi on and cesi um chl ori de gradi ent. HCT-8 cel ls were seeded to a 384-well plate and allowed to grow for 72 h to reach 90-100% confluence at 37 °C in 5% CO2. Oocysts were activated by 10-15 mi n i ncubat i on i n 10% bl each (0. 6% s odi um hy pochl o ri t e) at room temperature and then washed wi th DPBS. 2000 oocysts per wel l were appl ied to 384-well pl at es wi t h RPM I-1640 medi um s up pl ement ed w i th 10% ho rs e s erum and 1% pe ni ci l li n/s t rept omy ci n at the same time as compound addition. The compound and the oocysts were left in place for the full 72 h g row t h t i me. The amount of l uci feras e-induced light emission was determined by lysing the cell monol ayer, addi ng Nan o-Glo® luciferase reagent (Promega, Madison, W I , USA), and readi ng o n a n EnVi s i on M ul t il abe l Pl at e Re ade r (P e rk i n El me r, Wal t ham, M A, USA). C ont rol s i ncl ude d i nfe ct e d w e lls with no addition of inhibitors and the background was taken as wells where no C. parvum was adde d.
The per cent ag e of g row t h versus infected ce lls with no inhibitor was calculated for each concentrati on of BKI an d the hal f maxi mal effecti ve concentrati on (EC50) v al ues were determi ned by a si gmoi dal dose response wi th vari abl e sl ope usi ng GraphPad Pri sm versi on 6.07 (GraphPa d Software, La Jol l a, Cal i forni a, USA). […]

HepG2 cells = assay: HepG2 cytotoxicity; type: cell-based; details: Homo sapiens
Excerpt: as §1, §2, §3, §4, §5, §6, §7
was fixed to 100 only when at least 50% of inhibition was reached. […]

[3] = Cryptosporidium parvum, HCT-8, C. parvum growth in HCT-8 cells

T1 sequence (Q15046 whole entry): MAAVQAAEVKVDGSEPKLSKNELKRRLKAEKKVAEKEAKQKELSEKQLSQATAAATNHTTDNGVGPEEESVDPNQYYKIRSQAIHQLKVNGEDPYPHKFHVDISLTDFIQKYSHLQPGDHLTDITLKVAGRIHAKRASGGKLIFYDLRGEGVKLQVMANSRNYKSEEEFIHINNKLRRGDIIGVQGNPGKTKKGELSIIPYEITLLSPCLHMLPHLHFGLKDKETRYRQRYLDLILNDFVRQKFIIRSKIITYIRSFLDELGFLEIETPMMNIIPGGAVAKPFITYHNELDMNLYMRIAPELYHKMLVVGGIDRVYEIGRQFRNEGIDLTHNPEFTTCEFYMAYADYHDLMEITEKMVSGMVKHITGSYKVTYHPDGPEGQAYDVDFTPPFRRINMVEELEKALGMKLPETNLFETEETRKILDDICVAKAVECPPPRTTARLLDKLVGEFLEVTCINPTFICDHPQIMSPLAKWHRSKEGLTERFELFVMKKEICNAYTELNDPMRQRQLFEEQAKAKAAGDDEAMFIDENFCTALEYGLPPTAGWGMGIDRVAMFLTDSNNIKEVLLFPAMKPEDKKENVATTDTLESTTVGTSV

SMILES	IC50 (HsKRS)	cellular selectivity between P. falciparum parasites and human HepG2 cells [1]	EC50 [1]	EC50 [2, 3]	EC50 (HepG2 cells)	EC50 ([2]; C. parvum growth in HCT-8 cells)
O=C(NCC1(O)CCC(F)(F)CC1)c1cc(=O)c2cc(F)ccc2o1 [Compound 5]	1800 nM	180 fold	270 nM	2500 nM	49000 nM	–
O=C(NCC1(O)CCCCC1)c1cc(=O)c2cc(F)ccc2o1 [Compound 4]	740 nM	–	180 nM	140 nM	32000 nM	–
O=C(NCC1CCCCC1)c1cc(=O)c2cc(F)ccc2o1 [Compound 3]	> 2000 nM	–	290 nM	810 nM	> 50000 nM	–
C[C@H]1CCC[C@H](C[C@H]2Cc3cc(O)cc(O)c3C(=O)O2)O1 [Compound 1, cladosporin, reference compound]	> 2000 nM	–	73 nM	700 nM	> 50000 nM	670 nM
O=C(NCC1CCCCC1)c1cc(=O)c2ccccc2o1 [Compound 2]	> 2000 nM	–	190 nM	1200 nM	> 50000 nM	–
